Source: PubChem BioAssay AID2060906 (Molecular Pharmacology Branch, DTP, NCI, 2025)

Tested on: 485176-168-R4-J1-PDC complex spheroid growth
Assay: Anticancer human tumor 485176-168-R4-J1-PDC patient-derived pancreatic adenocarcinoma cell line growth inhibition [RAS]
Settings: for IC50: curve of first compound; for viability, T/C: stronger effect = lower value
Excerpt: RAS pathway inhibitors in Combinations in Complex Spheroids
A high-throughput screen of multi-cell type tumor spheroids was designed to identify active combinations of RAS pathway inhibitors and targeted small molecules. Complex spheroids include a stromal component modeled by human endothelial cells (HUVEC) and fibroblasts modeled by human mesenchymal stem cells (MSCs). The concentration ranges selected for each drug and investigational agent were based upon clinically achievable concentrations if the clinical Cmax of the agent was known.
Compounds. The drugs and investigational agents: abemaciclib (NSC768073), cobimetinib (NSC768068), divarasib (GDC6063, NSC841802), docetaxel (NSC628503), GDC-1971 (RLY-1971, NSC841576), gemcitabine (NSC613327), inavolisib (NSC800729), ipatasertib (NSC767898), KB-0742 (NSC834161), MRTX-1133 (NSC836407), osimertinib (NSC779217), RMC-4630 (NSC839698), RMC-6236 (NSC851965), RMC-6291 (NSC852671), Ro-3306 (NSC812927), sapanisertib (NSC764658), SN-38 (NSC673596), staurosporine (NSC755774), SY5609 (NSC837396), and tovorafenib (DAY101, NSC766906), were obtained from the National Cancer Institute (NCI) Developmental Therapeutics Program Chemical Repository. The FDA-approved anticancer drug set is available from the NCI Developmental Therapeutics Program. […] The stock solutions were prepared in dimethyl sulfoxide (DMSO, Sigma-Aldrich, St. Louis, MO, cat. D2650) at 800-fold the tested concentration and stored at -70 degrees C prior to their use. All drugs and investigational agents were tested over a range starting from a high concentration at or near the clinical Cmax and decreasing in half-log increments. If the clinical Cmax for an agent had not been determined, the highest concentration tested was 10 microM.
Cell Culture. All cells were maintained in an incubator at 37 degrees C and 5% CO2 with 95% humidity. The PDC lines were cultured according to standard operating procedures established by the NCI PDMR. All PDCs were thawed and cultured in Matrigel-coated flasks prepared with a working solution of 1X Ham's F-12 nutrient mix, without supplementation (Invitrogen, Waltham, MA, cat. 11765054), 100 U/mL penicillin-streptomycin (Invitrogen, cat. 15140122), and 2.5% Matrigel (Corning Inc., Corning, NY, cat. 354248) for the first three passages. The 362531-283-R-J2-PDC and 782815-120-R-J1-PDC lines were cultured in 6C/Colon 1B media, which includes advanced DMEM/F-12 (Thermo Fisher Scientific, cat. 12634028), 10 mM HEPES (Thermo Fisher Scientific, cat. 15630080), 1X GlutaMAX supplement (Thermo Fisher Scientific, cat. 35050061), 0.1 mg/mL primocin (InvivoGen, San Diego, CA, cat. ant-pm-2), 10% defined fetal bovine serum, heat inactivated (HyClone Laboratories Inc., Logan, UT, cat. SH30070.03HI), 50% L-WRN conditioned media (ATCC, cat. CRL-3276), 1.25 mM N-Acetyl-L-cysteine (Sigma-Aldrich, cat. A9165), 10 mM nicotinamide (Sigma-Aldrich, cat. N0636), 1X B-27 supplement (Thermo Fisher Scientific, cat. 17504044), 1X N-2 supplement (Thermo Fisher Scientific, cat. 17502048), 50 ng/mL human EGF (Thermo Fisher Scientific, cat. PHG0311), and 10 microM Y-27632 dihydrochloride (Tocris Bioscience, cat. 1254). The K12877-001-R-J1-PDC line was cultured in 6I media, which includes all 6C/Colon 1B media plus 10 ng/mL human FGF-10 (PeproTech, cat. 100-26), 1 ng/mL human FGF-2 (PeproTech, cat. 100-18B), 1 µM prostaglandin E2 (Tocris Bioscience, cat. 2296), […] hydrocortisone (Sigma-Aldrich, cat. H4001), and […] bovine insulin (Sigma-Aldrich, cat. I6634). The K86415-001-R-J1-PDC line was cultured in 6D media, which includes all 6C/Colon 1B media components minus the L-WRN conditioned media. The 485176-168-R4-J1-PDC was cultured in PANC media, which includes all 6C/Colon 1B media plus 100 ng/mL human FGF-10 (PeproTech, cat. 100-26), 500 nM SB-431542 (Selleckchem, cat. S1067), and 10 nM gastrin (Tocris Bioscience, cat. 3006). […]
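Further: spheroids exposed to compounds for seven days before readout.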
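Wherever viability, T/C is given: luminescence viability expressed relative to DMSO vehicle wells set as 100%.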

Compound: CC1(C)CCC(Nc2ncc(C(F)(F)F)c(-c3c[nH]c4c(P(C)(C)=O)c(C#N)ccc34)n2)CN1 (centres undefined) + C=CC(=O)N1CCN(c2nc(OCC3CCCN3C)nc3c(F)c(-c4nc(N)cc(C)c4C(F)(F)F)c(Cl)cc23)C(C)C1
- IC50 (second compound 0.00316 µM): > 300 nM
- IC50 (second compound 0.01 µM): 80.8 nM
- IC50 (second compound 0.0316 µM): > 300 nM
- IC50 (second compound 0.1 µM): 133 nM
- IC50 (second compound 0.316 µM): 43.1 nM
- IC50 (second compound 1 µM): 94.4 nM
- viability, T/C (second compound 0.00316 µM, first compound 0.000949 µM): 116%
- viability, T/C (second compound 0.00316 µM, first compound 0.003 µM): 109%
- viability, T/C (second compound 0.00316 µM, first compound 0.00949 µM): 85.6%
- viability, T/C (second compound 0.00316 µM, first compound 0.03 µM): 60%
- viability, T/C (second compound 0.00316 µM, first compound 0.0949 µM): 46.2%
- viability, T/C (second compound 0.00316 µM, first compound 0.3 µM): 55.6%
- viability, T/C (second compound 0.01 µM, first compound 0.000949 µM): 122%
- viability, T/C (second compound 0.01 µM, first compound 0.003 µM): 98.9%
- viability, T/C (second compound 0.01 µM, first compound 0.00949 µM): 75.7%
- viability, T/C (second compound 0.01 µM, first compound 0.03 µM): 53.9%
- viability, T/C (second compound 0.01 µM, first compound 0.0949 µM): 48.4%
- viability, T/C (second compound 0.01 µM, first compound 0.3 µM): 48.1%
- viability, T/C (second compound 0.0316 µM, first compound 0.000949 µM): 100%
- viability, T/C (second compound 0.0316 µM, first compound 0.003 µM): 105%
- viability, T/C (second compound 0.0316 µM, first compound 0.00949 µM): 81.5%
- viability, T/C (second compound 0.0316 µM, first compound 0.03 µM): 59.5%
- viability, T/C (second compound 0.0316 µM, first compound 0.0949 µM): 51%
- viability, T/C (second compound 0.0316 µM, first compound 0.3 µM): 49.1%
- viability, T/C (second compound 0.1 µM, first compound 0.000949 µM): 102%
- viability, T/C (second compound 0.1 µM, first compound 0.003 µM): 84.8%
- viability, T/C (second compound 0.1 µM, first compound 0.00949 µM): 80.4%
- viability, T/C (second compound 0.1 µM, first compound 0.03 µM): 63.8%
- viability, T/C (second compound 0.1 µM, first compound 0.0949 µM): 47.2%
- viability, T/C (second compound 0.1 µM, first compound 0.3 µM): 47.8%
- viability, T/C (second compound 0.316 µM, first compound 0.000949 µM): 92.7%
- viability, T/C (second compound 0.316 µM, first compound 0.003 µM): 104%
- viability, T/C (second compound 0.316 µM, first compound 0.00949 µM): 81%
- viability, T/C (second compound 0.316 µM, first compound 0.03 µM): 52%
- viability, T/C (second compound 0.316 µM, first compound 0.0949 µM): 52.1%
- viability, T/C (second compound 0.316 µM, first compound 0.3 µM): 44.2%
- viability, T/C (second compound 1 µM, first compound 0.000949 µM): 108%
- viability, T/C (second compound 1 µM, first compound 0.003 µM): 106%
- viability, T/C (second compound 1 µM, first compound 0.00949 µM): 82.8%
- viability, T/C (second compound 1 µM, first compound 0.03 µM): 57%
- viability, T/C (second compound 1 µM, first compound 0.0949 µM): 52.2%
- viability, T/C (second compound 1 µM, first compound 0.3 µM): 46.9%

Compound: CC(C)n1nc(-c2ccc3oc(N)nc3c2)c2c(N)ncnc21 + C#Cc1c(F)ccc2cc(O)cc(-c3ncc4c(N5CC6CCC(C5)N6)nc(OCC56CCCN5CC(F)C6)nc4c3F)c12
- IC50 (second compound 0.0316 µM): 31.8 nM
- IC50 (second compound 0.1 µM): 19 nM
- IC50 (second compound 0.316 µM): 34.6 nM
- IC50 (second compound 1 µM): 25 nM
- IC50 (second compound 3.16 µM): 22.1 nM
- IC50 (second compound 10 µM): 23.3 nM
- viability, T/C (second compound 0.0316 µM, first compound 0.000316 µM): 100%
- viability, T/C (second compound 0.0316 µM, first compound 0.001 µM): 106%
- viability, T/C (second compound 0.0316 µM, first compound 0.00316 µM): 88.6%
- viability, T/C (second compound 0.0316 µM, first compound 0.01 µM): 82.3%
- viability, T/C (second compound 0.0316 µM, first compound 0.0316 µM): 49%
- viability, T/C (second compound 0.0316 µM, first compound 0.1 µM): 19.8%
- viability, T/C (second compound 0.1 µM, first compound 0.000316 µM): 96.2%
- viability, T/C (second compound 0.1 µM, first compound 0.001 µM): 107%
- viability, T/C (second compound 0.1 µM, first compound 0.00316 µM): 65.4%
- viability, T/C (second compound 0.1 µM, first compound 0.01 µM): 69.2%
- viability, T/C (second compound 0.1 µM, first compound 0.0316 µM): 39%
- viability, T/C (second compound 0.1 µM, first compound 0.1 µM): 23.7%
- viability, T/C (second compound 0.316 µM, first compound 0.000316 µM): 98.3%
- viability, T/C (second compound 0.316 µM, first compound 0.001 µM): 78.5%
- viability, T/C (second compound 0.316 µM, first compound 0.00316 µM): 82.5%
- viability, T/C (second compound 0.316 µM, first compound 0.01 µM): 63.1%
- viability, T/C (second compound 0.316 µM, first compound 0.0316 µM): 61.7%
- viability, T/C (second compound 0.316 µM, first compound 0.1 µM): 20.1%
- viability, T/C (second compound 1 µM, first compound 0.000316 µM): 88%
- viability, T/C (second compound 1 µM, first compound 0.001 µM): 91.5%
- viability, T/C (second compound 1 µM, first compound 0.00316 µM): 86.4%
- viability, T/C (second compound 1 µM, first compound 0.01 µM): 55.9%
- viability, T/C (second compound 1 µM, first compound 0.0316 µM): 51.9%
- viability, T/C (second compound 1 µM, first compound 0.1 µM): 22%
- viability, T/C (second compound 3.16 µM, first compound 0.000316 µM): 91.9%
- viability, T/C (second compound 3.16 µM, first compound 0.001 µM): 87.7%
- viability, T/C (second compound 3.16 µM, first compound 0.00316 µM): 78.4%
- viability, T/C (second compound 3.16 µM, first compound 0.01 µM): 80%
- viability, T/C (second compound 3.16 µM, first compound 0.0316 µM): 36.6%
- viability, T/C (second compound 3.16 µM, first compound 0.1 µM): 21.5%
- viability, T/C (second compound 10 µM, first compound 0.000316 µM): 92.3%
- viability, T/C (second compound 10 µM, first compound 0.001 µM): 81.1%
- viability, T/C (second compound 10 µM, first compound 0.00316 µM): 80.8%
- viability, T/C (second compound 10 µM, first compound 0.01 µM): 68.9%
- viability, T/C (second compound 10 µM, first compound 0.0316 µM): 42.5%
- viability, T/C (second compound 10 µM, first compound 0.1 µM): 20.9%
